Patent EP1756142B1, “PSEUDOPEPTIDES GROWTH HORMONE SECRETAGOGUES” (Mediolanum Farmaceutici S.p.A., priority 2004, dated 2008)

Assays:
GH release [1] = assay: stimulation of GH release in vitro
GH release [2] = assay: GH release in vivo after subcutaneous injection in neonatal rats
[3] = system: human pituitary gland tissues; assay: binding affinity to human pituitary gland tissues; conditions: compared with Ghrelin, hexarelin, MK 0677 and JMV 1843

CC(C)(N)C(=O)N[C@H](Cc1c[nH]c2ccccc12)C(=O)N[C@@H](C=NOCC(N)=O)Cc1c[nH]c2ccccc12 [(Ia), Aib-D-Trp-D-Trpψ[CH=N∼O]Gly-NH2]
stimulating the GH release in vitro (GH release [1]): remarkably potent
stimulating the GH release in vivo (GH release [2]; in vivo): remarkably potent
amount of growth hormone released (GH release [2]; neonatal rats, injected subcutaneously, compared with MK 0677 and hexarelin): exceeded the amount released when the standard GH secretagogues MK 0677 and hexarelin were administered
binding affinity [3]: comparable to that of the natural ligand Ghrelin and superior to the binding affinity of the synthetic GH secretagogues
